A short description of data set [1]: Inhibition of TNFalpha-induced NFkappaB transcriptional activity in human HepG2 cells pretreated for 1 hr before TNFalpha challenge by luciferase reporter gene analysis.
Data set [2] is described as follows: (§1) Transactivation of PPAR expressed in HepG2 cells after 20 hrs by luminescence assay. It is filed as cell-based. The conditions noted are these: HepG2, 20 h.
Data set [3] has as its target T1, Peroxisome proliferator-activated receptor alpha (Homo sapiens, UniProt Q07869).
T1 sequence (Q07869 whole entry): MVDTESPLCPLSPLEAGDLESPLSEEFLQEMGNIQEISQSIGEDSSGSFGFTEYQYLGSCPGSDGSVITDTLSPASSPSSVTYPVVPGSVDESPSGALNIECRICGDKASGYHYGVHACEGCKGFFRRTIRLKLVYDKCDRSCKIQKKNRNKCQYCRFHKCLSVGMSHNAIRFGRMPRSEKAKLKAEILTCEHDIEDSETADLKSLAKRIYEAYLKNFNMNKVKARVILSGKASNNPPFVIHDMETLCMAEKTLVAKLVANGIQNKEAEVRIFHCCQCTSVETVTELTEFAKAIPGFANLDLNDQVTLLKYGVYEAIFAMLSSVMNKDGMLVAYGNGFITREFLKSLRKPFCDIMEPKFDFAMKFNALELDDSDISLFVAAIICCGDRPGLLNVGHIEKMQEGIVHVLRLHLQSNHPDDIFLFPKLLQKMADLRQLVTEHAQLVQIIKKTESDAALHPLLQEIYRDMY
Kind of data set: (§2) Transactivation of GAL4-fused PPARalpha LBD expressed in HepG2 cells after 20 hrs by luminescence assay. It is filed as cell-based.

For data set [4], the target named is T2, Peroxisome proliferator-activated receptor gamma (Homo sapiens, UniProt P37231).
T2 sequence (P37231 whole entry): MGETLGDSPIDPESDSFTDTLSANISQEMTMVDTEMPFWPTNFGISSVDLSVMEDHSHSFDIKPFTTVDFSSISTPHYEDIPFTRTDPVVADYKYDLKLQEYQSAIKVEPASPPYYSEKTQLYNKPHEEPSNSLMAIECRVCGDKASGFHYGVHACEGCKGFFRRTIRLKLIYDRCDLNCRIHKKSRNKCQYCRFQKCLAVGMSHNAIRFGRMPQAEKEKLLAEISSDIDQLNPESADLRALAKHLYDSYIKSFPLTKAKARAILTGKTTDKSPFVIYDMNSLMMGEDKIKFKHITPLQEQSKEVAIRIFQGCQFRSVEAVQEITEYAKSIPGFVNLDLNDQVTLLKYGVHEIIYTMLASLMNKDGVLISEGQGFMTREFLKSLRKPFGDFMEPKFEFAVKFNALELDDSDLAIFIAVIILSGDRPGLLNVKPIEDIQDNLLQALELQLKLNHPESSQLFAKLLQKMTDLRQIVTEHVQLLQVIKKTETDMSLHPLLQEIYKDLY
Kind of data set: Transactivation of GAL4-fused PPARgamma LBD expressed in HepG2 cells after 20 hrs by luminescence assay. Type of data set: cell-based.

The target in data set [5] is T3, Peroxisome proliferator-activated receptor delta (Homo sapiens, UniProt Q03181).
T3 sequence (Q03181 whole entry): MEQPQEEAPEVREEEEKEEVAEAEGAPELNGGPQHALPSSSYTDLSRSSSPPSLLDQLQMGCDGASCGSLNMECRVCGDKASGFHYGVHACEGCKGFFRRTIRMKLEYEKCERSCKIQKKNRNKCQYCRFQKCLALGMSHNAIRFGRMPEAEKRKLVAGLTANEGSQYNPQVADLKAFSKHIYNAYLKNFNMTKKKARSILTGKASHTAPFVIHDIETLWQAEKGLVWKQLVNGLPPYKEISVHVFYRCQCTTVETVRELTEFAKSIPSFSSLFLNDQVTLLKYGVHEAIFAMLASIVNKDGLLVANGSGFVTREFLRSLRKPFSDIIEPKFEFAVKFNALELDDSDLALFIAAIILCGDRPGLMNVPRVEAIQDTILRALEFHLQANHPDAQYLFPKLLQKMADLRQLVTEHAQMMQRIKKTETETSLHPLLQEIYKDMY
Kind of data set: Transactivation of GAL4-fused PPARbeta LBD expressed in HepG2 cells after 20 hrs by luminescence assay. Type of data set: cell-based.

Data set [6] deals with HepG2. Kind of data set: Cytotoxicity against human HepG2 cells by MTT assay. It is filed as cell-based. (In general: Tetrazolium assays rely on reduction of a dye to a coloured formazan, in cell work by metabolically active cells.)
Data set [7] has as its system HepG2. As to the kind of experiment: Inhibition of NFkappaB-mediated iNOS mRNA expression in human TNFalpha-stimulated human HepG2 cells pretreated for 1 hr before TNFalpha challenge measured after 6 hrs by RT-PCR analysis. Type of data set: cell-based.
Data set [8] deals with HepG2. Kind of data set: Inhibition of NFkappaB-mediated COX2 mRNA expression in human TNFalpha-stimulated human HepG2 cells by RT-PCR analysis. It is filed as cell-based.
The subject of data set [9] is HepG2. Described as §1. Type of data set: cell-based.
Data set [10] addresses T4, Peroxisome proliferator-activated receptor alpha (Homo sapiens) (UniProt Q07869).
T4 sequence (whole entry): T1 sequence (Q07869 whole entry)
The description is as §2. Type of data set: cell-based.

As to `O=C(O)c1cc(/N=N/c2ccc(S(=O)(=O)Nc3ccccn3)cc2)ccc1O` [SULFASALAZINE], in data set [1], the IC50 (commonly the concentration that gives 50% inhibition) turned out to be 0.9 µM.

On to `C=CCc1ccc(OC)c(OC)c1` [METHYLEUGENOL], for which the EC50 (usually the concentration needed to bring the measured effect to its halfway point) in data set [2] amounted to 28 µM; in [3], 46.5 µM; in [4], 40 µM; in data set [5] it was 50.6 µM. Besides, the Activity entry with HepG2 [6] is recorded as “Non-toxic”.

For the molecule `c1cc2c(cc1[C@H]1OC[C@H]3[C@@H]1CO[C@H]3c1ccc3c(c1)OCO3)OCO2` [ASARININ], the IC50 in data set [1] came out at 7.1 µM. The inhibition result with HepG2 [7] and with HepG2 [8] was “Dose-dependent effect” throughout. In data set [2], this molecule gave an EC50 of more than 60 µM. For the same molecule, the Activity result in the data set on HepG2 [6] is on record as “Non-toxic”.

As for `CCCc1c(OCCCOc2ccc(OCC(=O)O)cc2)ccc(C(C)=O)c1O`, the EC50 in [5] was 0.64 µM.

Take `CC=C/C=C\CC/C=C/C=C/C(=O)NCC(C)C`: the IC50 in [1] worked out at 6.4 µM. In addition, the inhibition result in the data set with HepG2 [7] and in the data set with HepG2 [8] was “Dose-dependent effect” in each case. For the same molecule, the EC50 in data set [2] worked out at 58.6 µM; in data set [3], 46.1 µM; in data set [4], 52.3 µM; in data set [5], 51.1 µM. Also, the Activity result in the data set with HepG2 [6] is given as “Non-toxic”.

`COc1cc([C@H]2OC[C@H]3[C@@H]2CO[C@H]3c2ccc(O)c(OC)c2)ccc1O` [PINORESINOL]: the concentration giving a half-maximal response (EC50) in [2] is 10.3 µM; in [3], more than 60 µM; in [4], 58.6 µM; in data set [5] it was 49.5 µM. The Activity result in the data set with HepG2 [9] is “Dose-dependent effect”; in the data set with HepG2 [6] it was “Non-toxic”.

`CC(C)(O)C1=C[C@@H](O)[C@@](C)(O)CC1`: the EC50 is 4.3 µM in data set [2], 19.5 µM in [3], 21.7 µM in data set [4] and 48.5 µM in data set [5]. For the same molecule, the Activity entry in data set [10] is “Dose-dependent effect”; in the data set on HepG2 [6] it was “Non-toxic”.

On to `COc1ccc([C@@H](O)[C@H](O)CO)cc1OC`, for which the EC50 turned out to be 20.3 µM in [2], 15.7 µM in [3], 19.3 µM in data set [4] and 22.6 µM in data set [5]. For the same molecule, the Activity result in data set [10] was “Dose-dependent effect”; with HepG2 [6], “Non-toxic”.

In turn, `CC(C)(Oc1ccc(CCNC(=O)c2ccc(Cl)cc2)cc1)C(=O)O` [BEZAFIBRATE] returned an EC50 in [2] of 1.05 µM.

In data set [2], `CC1=CC(=O)C2C(C1=O)C2(C)C` (racemic) had an EC50 of more than 60 µM. Moreover, in the data set on HepG2 [6], the Activity entry is listed as “Non-toxic”.

Regarding `C/C=C\CC/C=C/C=C/C(=O)NCC(C)C`, the EC50 in data set [2] worked out at 2 µM; in data set [3] it was 4 µM; in [4], 3.6 µM; in data set [5], 4.9 µM. Besides, the figures for the Activity result (in data set [10]; in the data set with HepG2 [6]) were “Dose-dependent effect” and “Non-toxic”, respectively.

On to `CC(C)(Oc1ccc(C2CC2(Cl)Cl)cc1)C(=O)O` (stereo not drawn) [CIPROFIBRATE], for which the 50% effective concentration (EC50) in data set [3] stood at 0.9 µM.

In the case of `COc1cc([C@H]2OC[C@H]3[C@@H]2CO[C@H]3c2ccc3c(c2)OCO3)cc(OC)c1O`, the EC50 in data set [2] was 6.2 µM; in data set [3] it was more than 60 µM; in data set [4], 22.6 µM; in data set [5] it was 47.6 µM. The Activity entry in the data set on HepG2 [6] is “Non-toxic”.

For the molecule `COc1cc([C@H]2OC[C@@H]3[C@H]2CO[C@H]3c2ccc3c(c2)OCO3)ccc1O` [PLUVIATILOL], the EC50 in data set [2] was 1.7 µM; in data set [3], more than 60 µM; in data set [4], 48.7 µM; in data set [5] it was 53.1 µM. Also, the Activity entry with HepG2 [6] is “Non-toxic”.

For the molecule `c1cc2c(cc1[C@H]1OC[C@H]3[C@@H]1CO[C@@H]3c1ccc3c(c1)OCO3)OCO2` [SESAMIN], the IC50 in [1] stood at 9.4 µM. The inhibition result in the data set on HepG2 [7] and in the data set on HepG2 [8] was “Dose-dependent effect” throughout. In [2], this molecule had an EC50 of more than 60 µM. Further, the Activity result in the data set on HepG2 [6] is given as “Non-toxic”.

On to `COc1cc([C@@H]2OC[C@@H]3[C@H]2CO[C@H]3c2ccc3c(c2)OCO3)ccc1O` [PIPERITOL], for which the EC50 in [2] amounted to 20.9 µM; in data set [3] it was 53.2 µM; in data set [4], 18.9 µM; in data set [5] it was 33.9 µM. Also, in the data set with HepG2 [6], the Activity entry was “Non-toxic”.

The values above are taken from ChEMBL document CHEMBL2010677, “Anti-inflammatory and PPAR transactivational effects of secondary metabolites from the roots of Asarum sieboldii” (Bioorg Med Chem Lett, 2012).
